According to the supplement of paper PMC11061612:

What was measured:
[1] = test system: IM-9 (Non-Cancerous); test: combination Emax (second highest fraction inhibited in the dose matrix, 72 h); higher = more inhibition; extreme values may be limits of the assay
In short: (§1)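 Bliss excess equals the observed combination effect minus the expected value EA + EB − EA·EB, where EA and EB are the effects of each agent alone. Combination Emax is the second-highest inhibition within the matrix. Inhibition was scaled from CellTiter-Glo 2.0 luminescence, with 0 set by vehicle wells and 1 by blank wells, after 72 hours of two-drug dosing of cells plated in 1536-well plates.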

[2] = test system: WM1552C (Melanoma); test: as above
In short: as §1

[3] = test system: JHU-022 (Oral Cavity Carcinoma); test: as above
In short: as §1

[4] = test system: DMS-53 (Small Cell Lung Carcinoma); test: as above
In short: as §1

[5] = test system: A253 (Head and Neck Carcinoma); test: as above
In short: as §1

[6] = test system: CAL-27 (Oral Cavity Carcinoma); test: Bliss excess, mean over the matrix (fraction); higher = more synergy
In short: as §1

[7] = test system: NCI-H1651 (Lung Adenocarcinoma); test: as above
In short: as §1

[8] = test system: MHH-ES-1 (Ewing's Sarcoma); test: as above
In short: as §1

[9] = test system: PEO1 (Ovarian Carcinoma); test: as above
In short: as §1

[10] = test system: G-402 (Other Solid Carcinomas); test: as above
In short: as §1

[11] = test system: NCI-H441 (Lung Adenocarcinoma); test: as above
In short: as §1

[12] = test system: CESS (Acute Myeloid Leukemia); test: as above
In short: as §1

[13] = test system: A253 (Head and Neck Carcinoma); test: as above
In short: as §1

[14] = test system: UACC-812 (Breast Carcinoma); test: as above
In short: as §1

[15] = test system: 769-P (Kidney Carcinoma); test: as above
In short: as §1

[16] = test system: KYSE-220 (Esophageal Squamous Cell Carcinoma); test: as above
In short: as §1

[17] = test system: EW-7 (Ewing's Sarcoma); test: as above
In short: as §1

[18] = test system: JHH-2 (Hepatocellular Carcinoma); test: as above
In short: as §1

[19] = test system: KP-N-YN (Neuroblastoma); test: as above
In short: as §1

[20] = test system: ESO26 (Esophageal Adenocarcinoma); test: as above
In short: as §1

SMILES	combination Emax [1]	combination Emax [2]	combination Emax [3]	combination Emax [4]	combination Emax [5]	Bliss excess [6]	Bliss excess [7]	Bliss excess [8]	Bliss excess [9]	Bliss excess [10]	Bliss excess [11]	Bliss excess [12]	Bliss excess [13]	Bliss excess [14]	Bliss excess [15]	Bliss excess [16]	Bliss excess [17]	Bliss excess [18]	Bliss excess [19]	Bliss excess [20]
Cc1c2c(nn1C)CSCc1cc(n(C)n1)CSc1cc(c3ccccc3c1)OCCCc1c(C(=O)O)n(C)c3c-2c(Cl)ccc13 [AZD5991] + CCN(CCO)CCCOc1ccc2c(Nc3cc(CC(=O)Nc4cccc(F)c4)[nH]n3)ncnc2c1 [AZD2811] (first compound max 1 µM, 7x7, partner max 1 µM)	1	0.824	0.273	0.56	0.896	0.0403	-0.0386	0.0173	0.0502	0.0271	-0.0142	0.192	0.0542	-0.0149	-0.0395	0.0088	0.198	-0.0213	0.0556	–
Cc1c2c(nn1C)CSCc1cc(n(C)n1)CSc1cc(c3ccccc3c1)OCCCc1c(C(=O)O)n(C)c3c-2c(Cl)ccc13 [AZD5991] + C[C@@H](Nc1cc(F)cc(F)c1)c1cc(C(=O)N(C)C)cc2c(=O)cc(N3CCOCC3)oc12 [AZD8186] (first compound max 1 µM, 7x7, partner max 3 µM)	0.671	0.77	0.398	0.398	0.777	0.0034	-0.0293	-0.0142	-0.008	–	-0.0189	-0.0325	-0.0396	0.0043	-0.0256	-0.006	-0.0178	-0.0261	-0.0498	-0.0171
Cc1c2c(nn1C)CSCc1cc(n(C)n1)CSc1cc(c3ccccc3c1)OCCCc1c(C(=O)O)n(C)c3c-2c(Cl)ccc13 [AZD5991] + Cn1cnc2c(F)c(Nc3ccc(Br)cc3Cl)c(C(=O)NOCCO)cc21 [Selumetinib] (first compound max 1 µM, 7x7, partner max 3 µM)	0.848	0.884	0.398	0.618	0.944	0.0086	-0.0165	-0.0127	0.0027	-0.0416	-0.0311	–	0.0716	0.0137	-0.035	0.0119	0.0096	-0.0154	-0.0059	0.0199
NC1(C(=O)N[C@@H](CCO)c2ccc(Cl)cc2)CCN(c2ncnc3[nH]ccc23)CC1 [Capivasertib] + CC(=O)c1c(C)c2cnc(Nc3ccc(N4CCNCC4)cn3)nc2n(C2CCCC2)c1=O [Palbociclib] (first compound max 10 µM, 7x7, partner max 10 µM)	0.706	0.427	0.471	0.25	0.673	-0.0242	-0.0393	0.0257	-0.0509	-0.0357	-0.0304	-0.0306	-0.0709	–	-0.0257	0.0407	0.01	-0.0028	-0.043	-0.0512
NC1(C(=O)N[C@@H](CCO)c2ccc(Cl)cc2)CCN(c2ncnc3[nH]ccc23)CC1 [Capivasertib] + CC(C)n1c(=O)n(C)c2cnc3cc(F)c(-c4ccc(OCCCN5CCCCC5)nc4)cc3c21 [AZD1390] (first compound max 10 µM, 7x7, partner max 0.3 µM)	0.577	0.305	0.413	0.187	0.559	-0.0886	-0.0404	-0.0515	-0.0601	-0.0731	-0.0711	-0.0835	-0.0597	–	-0.0261	-0.0659	-0.0311	-0.0449	-0.112	-0.053
NC1(C(=O)N[C@@H](CCO)c2ccc(Cl)cc2)CCN(c2ncnc3[nH]ccc23)CC1 [Capivasertib] + CCN(CCO)CCCOc1ccc2c(Nc3cc(CC(=O)Nc4cccc(F)c4)[nH]n3)ncnc2c1 [AZD2811] (first compound max 10 µM, 7x7, partner max 1 µM)	0.933	0.447	0.446	0.238	0.695	-0.0783	-0.0381	-0.0132	-0.0134	-0.0502	-0.0425	0.0217	-0.0346	–	-0.0139	-0.0154	0.0251	-0.0437	-0.0515	-0.0308
NC1(C(=O)N[C@@H](CCO)c2ccc(Cl)cc2)CCN(c2ncnc3[nH]ccc23)CC1 [Capivasertib] + COc1nnc2ccc(N3CCC(c4ccc(OCCN5CCN(C)C(=O)[C@H]5C)cc4)CC3)nn12 [AZD5153] (first compound max 10 µM, 7x7, partner max 1 µM)	0.811	0.555	0.486	0.164	0.75	-0.0366	-0.0361	0.0467	0.0529	-0.02	-0.006	0.0506	0.125	–	0.055	-0.0248	-0.0004	0.0064	-0.0718	0.0358
NC1(C(=O)N[C@@H](CCO)c2ccc(Cl)cc2)CCN(c2ncnc3[nH]ccc23)CC1 [Capivasertib] + C[C@@H]1COCCN1C2=NC(=NC(=C2)C3(CC3)[S@](=N)(=O)C)C4=C5C=CNC5=NC=C4 [AZD6738] (first compound max 10 µM, 7x7, partner max 10 µM)	0.979	0.651	0.631	0.34	0.852	-0.0792	-0.0528	-0.0259	-0.0225	-0.017	-0.0011	0.0044	-0.0163	–	-0.0448	-0.0523	0.0021	-0.0651	-0.0395	-0.0364
NC1(C(=O)N[C@@H](CCO)c2ccc(Cl)cc2)CCN(c2ncnc3[nH]ccc23)CC1 [Capivasertib] + Cn1cnc2c(F)c(Nc3ccc(Br)cc3Cl)c(C(=O)NOCCO)cc21 [Selumetinib] (first compound max 10 µM, 7x7, partner max 10 µM)	0.874	0.638	0.576	0.301	0.89	0.0108	-0.0156	0.0114	-0.0358	0.0126	-0.0041	-0.0147	0.0591	–	0.0062	0.0644	0.0429	0.016	0.053	0.0818
CS(=O)(=O)CCNCc1ccc(-c2ccc3ncnc(Nc4ccc(OCc5cccc(F)c5)c(Cl)c4)c3c2)o1 [Lapatinib] + C[C@@H](Oc1cc(-c2cnn(C3CCNCC3)c2)cnc1N)c1c(Cl)ccc(F)c1Cl [Crizotinib] (first compound max 10 µM, 7x7, partner max 10 µM)	0.991	0.921	0.943	0.25	0.907	-0.0589	-0.0331	-0.0333	-0.0422	-0.0517	-0.0412	-0.0826	-0.0221	–	-0.0331	-0.0397	-0.0465	-0.0831	-0.0084	-0.0293
CS(=O)(=O)CCNCc1ccc(-c2ccc3ncnc(Nc4ccc(OCc5cccc(F)c5)c(Cl)c4)c3c2)o1 [Lapatinib] + NC1(c2ccc(-c3nc4ccn5c(=O)[nH]nc5c4cc3-c3ccccc3)cc2)CCC1 [MK-2206] (first compound max 10 µM, 7x7, partner max 10 µM)	0.964	0.767	0.663	0.544	–	–	-0.0008	0.0191	-0.0687	–	-0.0033	–	–	–	0.0372	-0.0099	0.0239	-0.0371	0.0876	–
CC(=O)c1c(C)c2cnc(Nc3ccc(N4CCNCC4)cn3)nc2n(C2CCCC2)c1=O [Palbociclib] + CC1(C)CCC(CN2CCN(c3ccc(C(=O)NS(=O)(=O)c4ccc(NCC5CCOCC5)c([N+](=O)[O-])c4)c(Oc4cnc5[nH]ccc5c4)c3)CC2)=C(c2ccc(Cl)cc2)C1 [Venetoclax] (first compound max 10 µM, 7x7, partner max 1 µM)	0.776	0.28	0.105	0.327	0.0236	-0.0483	-0.038	0.0193	-0.0062	0.0369	-0.0237	-0.0272	-0.0555	–	-0.0158	-0.081	0.0071	0.0031	-0.0844	-0.0364
CCc1c2c(nc3ccc(O)cc13)-c1cc3c(c(=O)n1C2)COC(=O)[C@]3(O)CC [SN-38] + O=C(c1cc(Cc2n[nH]c(=O)c3ccccc23)ccc1F)N1CCN(C(=O)C2CC2)CC1 [Olaparib] (first compound max 0.3 µM, 7x7, partner max 10 µM)	1	0.609	0.764	0.735	0.938	–	0.0252	0.0533	0.0523	0.0614	0.0449	0.0785	0.0223	0.0333	0.0592	0.0078	0.0538	-0.0442	-0.0038	0.0237
CC1(C)CCC(CN2CCN(c3ccc(C(=O)NS(=O)(=O)c4ccc(NCC5CCOCC5)c([N+](=O)[O-])c4)c(Oc4cnc5[nH]ccc5c4)c3)CC2)=C(c2ccc(Cl)cc2)C1 [Venetoclax] + CS(=O)(=O)CCNCc1ccc(-c2ccc3ncnc(Nc4ccc(OCc5cccc(F)c5)c(Cl)c4)c3c2)o1 [Lapatinib] (first compound max 1 µM, 7x7, partner max 10 µM)	0.958	0.187	0.631	–	–	–	-0.0182	0.0086	-0.0673	–	-0.0292	–	–	0.0062	0.0871	-0.0233	0.0078	-0.0664	-0.0157	–
